PMC5643135, “Crystallographic and thermodynamic characterization of phenylaminopyridine bisphosphonates binding to human farnesyl pyrophosphate synthase” (PLoS ONE, 2017)

Molecular target: T1, human farnesyl pyrophosphate synthase (hFPPS) (Homo sapiens, UniProt P14324)
T1 construct: gene FDPS; purified protein, homodimer, subunit 42 kDa
T1 sequence (P14324 1-353 isoform P14324-2): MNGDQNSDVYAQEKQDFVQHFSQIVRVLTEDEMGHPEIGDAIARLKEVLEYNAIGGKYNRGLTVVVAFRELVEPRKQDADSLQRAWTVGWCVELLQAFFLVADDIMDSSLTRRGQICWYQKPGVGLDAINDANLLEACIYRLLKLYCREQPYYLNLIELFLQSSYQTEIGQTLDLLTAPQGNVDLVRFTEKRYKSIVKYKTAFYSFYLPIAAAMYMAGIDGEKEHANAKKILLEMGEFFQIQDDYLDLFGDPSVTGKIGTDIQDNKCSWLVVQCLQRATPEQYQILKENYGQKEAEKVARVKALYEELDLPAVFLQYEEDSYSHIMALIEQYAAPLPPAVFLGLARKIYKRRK
Test: ITC, one-site model
Type: binding
Source text: ITC, one-site model on human farnesyl pyrophosphate synthase (hFPPS)

Kd: 120 ± 36 nM
Structure (SMILES): O=P(O)(O)C(Nc1cncc(-c2ccc(OC3CC3)cc2)c1)P(=O)(O)O [JDS05120]
